Values of other authors in patent US12037346B2, “Amino-substituted heteroaryls for treating cancers with EGFR mutations” (Nuvalent, Inc., priority 2021, dated 2024).

Biological target: HER2 (Homo sapiens, UniProt P04626)
Settings: cited from earlier work

Sequence of HER2 (P04626 23-1255): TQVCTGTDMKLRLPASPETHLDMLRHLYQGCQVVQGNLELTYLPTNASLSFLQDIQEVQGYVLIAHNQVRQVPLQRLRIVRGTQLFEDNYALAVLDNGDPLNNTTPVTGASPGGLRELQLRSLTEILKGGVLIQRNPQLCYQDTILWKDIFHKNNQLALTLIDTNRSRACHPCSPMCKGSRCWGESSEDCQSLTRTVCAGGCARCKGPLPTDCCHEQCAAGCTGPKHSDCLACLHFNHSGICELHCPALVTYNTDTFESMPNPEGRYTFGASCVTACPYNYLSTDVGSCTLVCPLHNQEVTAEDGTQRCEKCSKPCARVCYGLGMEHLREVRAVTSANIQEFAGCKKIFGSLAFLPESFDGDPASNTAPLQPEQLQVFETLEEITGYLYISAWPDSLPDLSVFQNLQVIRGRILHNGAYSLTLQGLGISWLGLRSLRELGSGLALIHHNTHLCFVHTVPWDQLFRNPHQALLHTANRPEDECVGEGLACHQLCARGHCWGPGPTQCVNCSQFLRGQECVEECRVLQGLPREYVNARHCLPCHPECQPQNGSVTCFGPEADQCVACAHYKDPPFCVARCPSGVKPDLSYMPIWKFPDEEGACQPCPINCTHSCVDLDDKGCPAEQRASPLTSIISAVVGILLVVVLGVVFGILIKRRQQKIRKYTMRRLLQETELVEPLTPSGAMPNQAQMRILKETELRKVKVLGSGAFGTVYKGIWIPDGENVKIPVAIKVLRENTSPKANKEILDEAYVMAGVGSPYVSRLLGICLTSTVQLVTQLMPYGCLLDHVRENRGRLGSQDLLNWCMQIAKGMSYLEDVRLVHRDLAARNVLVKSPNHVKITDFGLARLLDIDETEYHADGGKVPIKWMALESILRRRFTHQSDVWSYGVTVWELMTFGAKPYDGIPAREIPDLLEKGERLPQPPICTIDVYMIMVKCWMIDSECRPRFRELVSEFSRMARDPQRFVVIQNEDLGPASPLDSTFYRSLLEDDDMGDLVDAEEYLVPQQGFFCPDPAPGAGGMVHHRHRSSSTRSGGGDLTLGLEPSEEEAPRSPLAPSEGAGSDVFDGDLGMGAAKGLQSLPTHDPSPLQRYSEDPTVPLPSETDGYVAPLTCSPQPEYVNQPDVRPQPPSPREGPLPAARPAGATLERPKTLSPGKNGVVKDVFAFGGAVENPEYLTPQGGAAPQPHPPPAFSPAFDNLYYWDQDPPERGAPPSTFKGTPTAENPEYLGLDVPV

Cc1cc(Nc2ncnc3ccc(NC4=NC(C)(C)CO4)cc23)ccc1Oc1ccn2ncnc2c1 [Tucatinib]
median progression free survival (compared to placebo (5.6 months)): 7.8 months | median overall survival (compared to placebo (17.4 months)): 21.9 months | objective response rate (compared to placebo (23%)): 41%
